Source: US11247965B2 (VenatoRx Pharmaceuticals, Inc., priority 2017, dated 2022)
Where two headings read alike, the source gives them in different places.

Assays:
HepG2 cells = assay: In vitro cytotoxicity, MTT cell viability assay in HepG2 cells; assay type: cell-based; settings: human, 7 days
Outline: (§1)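 Read-out: MTT formazan absorbance at 492 nm, expressed as % of vehicle signal; CC50 by 4-parameter non-linear regression. Parental HepG2, 20,000 cells/well, treated 7 days with compound from 30 μM down to 1.0 nM.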

[1] = test system: HBV replication in HepAD38 cells; assay: Anti-HBV activity in HepAD38 cells, extracellular HBV DNA by QPCR; assay type: cell-based, HBV (genotype D, serotype ayw)
Outline: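 Seven-day compound exposure (30 μM down to 10 nM, half-log steps) after tetracycline withdrawal induced HBV replication in HepAD38 cells. Extracellular viral DNA measured by QPCR (copies/mL via standard curve), normalised to DMSO wells; EC50 from 4-parameter non-linear regression.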

[2] = In vitro cytotoxicity, MTT cell viability assay in HepG2 cells; assay type: cell-based; settings: human, Cytotoxicity CC50
Outline: as §1

HBV = settings: Phase 1b clinical trial, 600 mg bid dosing for 29 days; cited from earlier work
[3] = Hepatitis B virus, HePAD38, 168 h, read-out: Anti-HBV EC50, HepAD38 cells, extracellular HBV DNA by QPCR, 7 days of incubation
[4] = read-out: Anti-HBV EC50, HepAD38 cells, extracellular HBV DNA by QPCR, 7 days of incubation

SMILES | CC50 (HepG2 cells) [µM] | EC50 [1, 3] [µM] | EC50 [1, 4] [µM] | CC50 at 7 days [2] [µM] | reduction in HBV DNA (HBV) [log 10]
Cc1cc(NC(=O)c2ccc(F)c(C(F)(F)C(=O)N3C4CCC3CC(O)(CO)C4)c2)ccc1F (single isomer, unassigned; isomer 1) [Example 274] | < 5 | < 5 | – | – | –
Cc1cc(NC(=O)c2ccc(F)c(C(F)(F)C(=O)N3C4CCC3CC(O)(CO)C4)c2)ccc1F (single isomer, unassigned; isomer 2) [Example 275] | > 30 | – | < 5 | – | –
O=C(Nc1ccc(F)c(F)c1)c1ccc(F)c(C(F)(F)C(=O)NC2CCC(O)CC2)c1 (centres unmarked) [Example 27, 3-(1,1-difluoro-2-(((1s,4s)-4-hydroxycyclohexyl)amino)-2-oxoethyl)-N-(3,4-difluorophenyl)-4-fluorobenzamide] | 5 to 30 | – | < 5 | – | –
Cc1cc(NC(=O)c2c(C)c(C(O)(C(=O)NC(C)(C)C)C(F)(F)F)c(C)n2C)ccc1F (centres unmarked) [Example 155, 4-(3-(tert-butylamino)-1,1,1-trifluoro-2-hydroxy-3-oxopropan-2-yl)-N-(4-fluoro-3-methylphenyl)-1,3,5-trimethyl-1H-pyrrole-2-carboxamide] | 5 to 30 | – | < 5 | – | –
N#Cc1cc(NC(=O)c2ccc(F)c(C(F)(F)C(=O)N3[C@@H]4CC[C@H]3C[C@@H](O)C4)c2)ccc1F [Example 178, N-(3-cyano-4-fluorophenyl)-3-(1,1-difluoro-2-((1R,3r,5S)-3-hydroxy-8-azabicyclo[3.2.1]octan-8-yl)-2-oxoethyl)-4-fluorobenzamide] | > 30 | < 5 | – | – | –
N#Cc1cc(NC(=O)c2ccc(F)c(C(F)(F)C(=O)N3CCC(O)C(F)(F)C3)c2)ccc1F (centres unmarked) [Example 191, N-(3-cyano-4-fluorophenyl)-3-(2-(3,3-difluoro-4-hydroxypiperidin-1-yl)-1,1-difluoro-2-oxoethyl)-4-fluorobenzamide] | 5 to 30 | – | < 5 | – | –
N#Cc1cc(NC(=O)c2ccc(F)c(C(F)(F)C(=O)N3[C@@H]4CC[C@H]3C[C@@H](O)C4)c2)ccc1F [Example 192, N-(3-cyano-4-fluorophenyl)-3-(1,1-difluoro-2-((1R,3r,5S)-3-hydroxy-8-azabicyclo[3.2.1]octan-8-yl)-2-oxoethyl)-4-fluorobenzamide] | 5 to 30 | – | < 5 | – | –
Cc1cc(NC(=O)c2ccc(F)c(C(F)(F)C(=O)N3[C@@H]4COC[C@H]3C[C@H](NS(C)(=O)=O)C4)c2)ccc1F [Example 306, 3-(1,1-difluoro-2-((1R,5S,7r)-7-(methylsulfonamido)-3-oxa-9-azabicyclo[3.3.1]nonan-9-yl)-2-oxoethyl)-4-fluoro-N-(4-fluoro-3-methylphenyl)benzamide] | – | < 5 | – | 5 to 30 | –
COC(=O)N[C@@H]1C[C@H]2COC[C@@H](C1)N2C(=O)C(F)(F)c1cc(C(=O)Nc2ccc(F)c(C)c2)ccc1F [Example 307, methyl ((1R,5S,7r)-9-(2,2-difluoro-2-(2-fluoro-5-((4-fluoro-3-methylphenyl)carbamoyl)phenyl)acetyl)-3-oxa-9-azabicyclo[3.3.1]nonan-7-yl)carbamate] | – | < 5 | – | 5 to 30 | –
Cc1cc(NC(=O)c2ccc(F)c(C(F)(F)C(=O)N3CCc4sc(N)nc4C3)c2)ccc1F [Example 308, 3-(2-(2-amino-6,7-dihydrothiazolo[4,5-c]pyridin-5(4H)-yl)-1,1-difluoro-2-oxoethyl)-4-fluoro-N-(4-fluoro-3-methylphenyl)benzamide] | – | < 5 | – | 5 to 30 | –
Cc1cc(NC(=O)c2ccc(F)c(C(F)(F)C(=O)Nc3nc4c(s3)CCNC4)c2)ccc1F [Example 309, 3-(1,1-difluoro-2-oxo-2-((4,5,6,7-tetrahydrothiazolo[4,5-c]pyridin-2-yl)amino)ethyl)-4-fluoro-N-(4-fluoro-3-methylphenyl)benzamide] | – | 5 to 30 | – | 5 to 30 | –
Cc1cc(NC(=O)c2ccc(F)c(C(F)(F)C(=O)N3CC4COCC(C3)C4O)c2)ccc1F (centres unmarked) [Example 310, 3-(1,1-difluoro-2-(9-hydroxy-3-oxa-7-azabicyclo[3.3.1]nonan-7-yl)-2-oxoethyl)-4-fluoro-N-(4-fluoro-3-methylphenyl)benzamide] | – | < 5 | – | > 30 | –
CC(=O)NC1CCN(C(=O)C(F)(F)c2cc(C(=O)Nc3ccc(F)c(C)c3)ccc2N)CC1(C)C (centres unmarked) [Example 311, 3-(2-(4-acetamido-3,3-dimethylpiperidin-1-yl)-1,1-difluoro-2-oxoethyl)-4-amino-N-(4-fluoro-3-methylphenyl)benzamide] | – | < 5 | – | > 30 | –
CC(=O)N[C@H]1CCN(C(=O)C(F)(F)c2cc(C(=O)Nc3ccc(F)c(C)c3)ccc2F)CC1(C)C [Example 327, (S)-3-(2-(4-acetamido-3,3-dimethylpiperidin-1-yl)-1,1-difluoro-2-oxoethyl)-4-fluoro-N-(4-fluoro-3-methylphenyl)benzamide] | – | < 5 | – | > 30 | –
Cc1cc(NC(=O)c2ccc(F)c(C(F)(F)C(=O)N3CCC(N)C(F)(F)C3)c2)ccc1F (centres unmarked) [Example 334, 3-(2-(4-amino-3,3-difluoropiperidin-1-yl)-1,1-difluoro-2-oxoethyl)-4-fluoro-N-(4-fluoro-3-methylphenyl)benzamide] | – | < 5 | – | 5 to 30 | –
Cc1cc(NC(=O)c2ccc(F)c(C(F)(F)C(=O)N3CCC(NS(C)(=O)=O)C(F)(F)C3)c2)ccc1F (centres unmarked) [Example 335, 3-(2-(3,3-difluoro-4-(methylsulfonamido)piperidin-1-yl)-1,1-difluoro-2-oxoethyl)-4-fluoro-N-(4-fluoro-3-methylphenyl)benzamide] | – | < 5 | – | > 30 | –
Cc1cc(NC(=O)c2ccc(F)c(C(F)(F)C(=O)N3[C@@H]4CCC[C@H]3C[C@@H](NS(C)(=O)=O)C4)c2)ccc1F [Example 336, 3-(1,1-difluoro-2-((1R,3r,5S)-3-(methylsulfonamido)-9-azabicyclo[3.3.1]nonan-9-yl)-2-oxoethyl)-4-fluoro-N-(4-fluoro-3-methylphenyl)benzamide] | – | < 5 | – | > 30 | –
Cc1cc(NC(=O)c2ccc(F)c(C(F)(F)C(=O)N3[C@@H]4CCC[C@H]3C[C@H](N)C4)c2)ccc1F [Example 337, 3-(2-((1R,3s,5S)-3-amino-9-azabicyclo[3.3.1]nonan-9-yl)-1,1-difluoro-2-oxoethyl)-4-fluoro-N-(4-fluoro-3-methylphenyl)benzamide] | – | < 5 | – | 5 to 30 | –
Cc1cc(NC(=O)c2ccc(F)c(C(F)(F)C(=O)N3[C@@H]4CCC[C@H]3C[C@H](NS(C)(=O)=O)C4)c2)ccc1F [Example 338, 3-(1,1-difluoro-2-((1R,3s,5S)-3-(methylsulfonamido)-9-azabicyclo[3.3.1]nonan-9-yl)-2-oxoethyl)-4-fluoro-N-(4-fluoro-3-methylphenyl)benzamide] | – | < 5 | – | 5 to 30 | –
Cc1cc(NC(=O)c2ccc(F)c(C(F)(F)C(=O)N3Cc4sc(N)nc4C(C)(C)C3)c2)ccc1F [Example 339, 3-(2-(2-amino-7,7-dimethyl-6,7-dihydrothiazolo[5,4-c]pyridin-5(4H)-yl)-1,1-difluoro-2-oxoethyl)-4-fluoro-N-(4-fluoro-3-methylphenyl)benzamide] | – | < 5 | – | 5 to 30 | –
Cc1cc(NC(=O)c2ccc(F)c(C(F)(F)C(=O)N3CCc4nc(N)sc4CC3)c2)ccc1F [Example 340, 3-(2-(2-amino-4,5,7,8-tetrahydro-6H-thiazolo[4,5-d]azepin-6-yl)-1,1-difluoro-2-oxoethyl)-4-fluoro-N-(4-fluoro-3-methylphenyl)benzamide] | – | < 5 | – | 5 to 30 | –
Cc1cc(NC(=O)c2ccc(F)c(C(F)(F)C(=O)N3CCn4c(nnc4C(F)(F)F)C3)c2)ccc1F [Example 341, 3-(1,1-difluoro-2-oxo-2-(3-(trifluoromethyl)-5,6-dihydro-[1,2,4]triazolo[4,3-a]pyrazin-7(8H)-yl)ethyl)-4-fluoro-N-(4-fluoro-3-methylphenyl)benzamide] | – | 5 to 30 | – | 5 to 30 | –
Cc1cc(NC(=O)c2ccc(F)c(C(F)(F)C(=O)N3C4CCCC3c3sc(N)nc3C4)c2)ccc1F (centres unmarked) [Example 342, 3-(2-(2-amino-4,5,6,7,8,9-hexahydro-5,9-epiminocycloocta[d]thiazol-10-yl)-1,1-difluoro-2-oxoethyl)-4-fluoro-N-(4-fluoro-3-methylphenyl)benzamide] | – | < 5 | – | > 30 | –
O=C(Nc1cc(F)c(F)c(F)c1)c1ccc(F)c(S(=O)(=O)N2CCC(O)CC2)c1 [NVR 3-778] | – | – | – | – | −1.7
